According to patent US10738062B2, “Chromane-substituted tetracyclic compounds and uses thereof for the treatment of viral diseases” (Merck Sharp & Dohme Corp., priority 2016, dated 2020):
Read-outs that look alike come from different tables or passages of the source.

How the values were obtained:
Set-up in all cases: species or system Hepatitis C virus
HCV replicon 1A Y93H = assay: Cell-based HCV replicon assay (Replicon Assay A), replicon 1AY93H; conditions: read-out: EC50 replicon 1A Y93H; Replicon Assay A; replicon RNA by real time PCR, day 3
Experimental: (§1) To measure cell-based anti-HCV activity of compounds of the present invention, two complimentary assays were employed using various replicons. In the first assay (“Replicon Assay A”), replicon cells were seeded at 2000 cells/well in 384-well 384-well flat bottom tissue culture treated clear bottom plate (Corning 3707) in the presence of the test compound. Various concentrations of test compound, typically in 10 serial dilutions, were added to the assay mixture, with the starting concentration ranging from 333.3 nM to 1.667 nM. The final concentration of DMSO was 0.5%. Fetal bovine serum was 5%, in the assay media. Cells were harvested on day 3 by removing media and washing the cells with a suitable wash buffer. The cells were lysed with the addition of 1× Qiagen lysis buffer (Cat #1062731). The replicon RNA level was measured using real time PCR (TaqMan® EZ RT-PCR, Applied Biosystems 403028) with the following primers and probes: […]
(§2) Cyclophilin RNA was used as endogenous control and was amplified in the same reaction as NS5B (multiplex PCR). The real-time RT-PCR reactions were run on ABI PRISM 7900HT Sequence Detection System using the following program: 50° C. for 2 minutes, 60° C. for 30 minutes, 95° C. for 5 minutes, 40 cycles of 94° C. for 20 sec, 55° C. for 1 minutes.
(§3) The amount of HCV replicon RNA per cell was quantified using a linear regression curve for a known nanogram (ng) amount of HCV replicon total RNA. This was established by plotting the Cycle Threshold values (Ct) from the Neo probe and primer set versus the log (ng) for each HCV replicon total RNA standard. The amount of HCV RNA for each replicon sample was calculated by taking the sample's Ct value, minus the line intercept, divided by the slope of the line. Similarly, the amount of Cyclophilin mRNA per cell was also quantified using a linear regression curve for a known nanogram (ng) amount of HCV replicon total RNA. Again, this was established by plotting the Cycle Threshold values (Ct) from the Cyclophilin probe and primer set versus the log (ng) for each HCV replicon total RNA standard.
(§4) The real-time RT-PCR reactions were run on ABI PRISM 7900HT or Viia7 Sequence Detection System using the following program: 48° C. for 30 minutes, 95° C. for 10 minutes, 40 cycles of 95° C. for 15 sec, 60° C. for 1 minutes. The 50% effective concentration (EC50) was the drug concentration necessary to achieve an increase in the cycle threshold (CT) of 1 over the projected baseline CT.
(§5) Data was obtained for various compounds of the present invention using the methods described in the Example above, and is presented in the table immediately below. EC50 data for replicons 1A, 1AY93H and 2B were obtained using Replicon Assay A and EC50 data for replicon 1B was obtained using Replicon Assay B.

HCV replicon 1B = assay: Cell-based HCV replicon assay (Replicon Assay B), replicon 1B; conditions: replicon RNA by real-time PCR, 3 days
Experimental: In an alternate assay (“Replicon Assay B”), 1000 cells were seeded per well in a 384-well collagen coated black plate from Greiner bio-one (Cat #781946) in 5% FBS. Inhibitors of this invention were added at 24 h post-seeding, and the plates were incubated for 3 days. Cells were subsequently lysed with Qiagen lysis buffer (Cat #1062731) to extract the RNA. HCV replicon RNA level was measured by real-time PCR using the RNA-to-CT kit from Applied Biosystem (Cat #4392656) and genotype-specific primers and probes. The amplicon was located within NS5B. […] (SEQ. ID NO. 2); the probe sequence was FAM-labeled […] (SEQ. ID NO. 3).
The real-time RT-PCR reactions were run on ABI PRISM 7900HT or Viia7 Sequence Detection System using the following program: 48° C. for 30 minutes, 95° C. for 10 minutes, 40 cycles of 95° C. for 15 sec, 60° C. for 1 minutes.
EC50 data for replicons 1A, 1AY93H and 2B were obtained using Replicon Assay A and EC50 data for replicon 1B was obtained using Replicon Assay B.

HCV replicon 1A = assay: Cell-based HCV replicon assay (Replicon Assay A), replicon 1A; conditions: replicon RNA by real time PCR, day 3
Experimental: as §1, §2, §3, §4, §5

HCV replicon 2B = assay: Cell-based HCV replicon assay (Replicon Assay A), replicon 2B; conditions: replicon RNA by real time PCR, day 3
Experimental: as §1, §2, §3, §4, §5

[1] = read-out: EC50 replicon 2B, Replicon Assay A

Structure (SMILES) | EC50 (HCV replicon 1A Y93H) | EC50 (HCV replicon 1B) | EC50 (HCV replicon 1A) | EC50 (HCV replicon 2B; [1]) | EC50 (HCV replicon 1B; Hepatitis C virus, 72 h) | EC50 (HCV replicon 1A; Hepatitis C virus, 72 h) | EC50 (HCV replicon 2B; Hepatitis C virus, 72 h, read-out: EC50 replicon 2B, Replicon Assay A)
COC(=O)NC(C(=O)N1CCC[C@H]1c1ncc(-c2ccc3c(c2)cc2n3C(c3ccc4c(c3)OCCC4)Oc3cc(-c4cnc([C@@H]5CCCN5C(=O)[C@@H](NC(=O)OC)C(C)C)[nH]4)cc(F)c3-2)[nH]1)C1CCOC(C)(C)C1 (single isomer, unassigned) [Compound 80] | 24 pM | 3.2 pM | 2.6 pM | 6 pM |  |  | 
CCO[C@H](C)[C@H](NC(=O)OC)C(=O)N1CCC[C@H]1c1ncc(-c2cc(F)c3c(c2)OC(c2ccc4c(c2)OCCC4)n2c-3cc3cc(-c4cnc([C@@H]5CCCN5C(=O)[C@@H](NC(=O)OC)C(C)C)[nH]4)ccc32)[nH]1 (single isomer, unassigned) [Compound 39] | 3380 pM |  |  | 910 pM | 1.4 pM | 1.7 pM | 
COC(=O)N[C@H](C(=O)N1CCC[C@H]1c1ncc(-c2ccc3c(c2)OC(c2ccc4c(c2)OCCC4)n2c-3cc3cc(-c4cnc([C@@H]5C[C@H]6C[C@H]6N5C(=O)[C@@H](NC(=O)OC)C(C)C)[nH]4)ccc32)[nH]1)C(C)C (single isomer, unassigned) [Compound 50] | 60 pM |  | 1.4 pM | 36 pM | 1.4 pM |  | 
COC(=O)NC(C(=O)N1CCC[C@H]1c1ncc(-c2ccc3c(c2)cc2n3C(c3ccc4c(c3)OC(C)CC4)Oc3cc(-c4cnc([C@@H]5CCCN5C(=O)[C@@H](NC(=O)OC)C(C)C)[nH]4)cc(F)c3-2)[nH]1)C1C[C@@H](C)O[C@@H](C)C1 (single isomer, unassigned) [Compound 59] | 15 pM |  | 3.2 pM | 17 pM | 2.7 pM |  | 
COC(=O)N[C@H](C(=O)N1CCC[C@H]1c1ncc(-c2cc(F)c3c(c2)OC(c2ccc4c(c2)OC(C)CC4)n2c-3cc3cc(-c4cnc([C@@H]5CCCN5C(=O)[C@@H](NC(=O)OC)C(C)C)[nH]4)ccc32)[nH]1)C(C)C (single isomer, unassigned) [Compound 13] | 106 pM |  | 2.3 pM | 144 pM | 3.2 pM |  | 
COC(=O)N[C@H](C(=O)N1CCC[C@H]1c1ncc(-c2ccc3c(c2)OC(c2ccc4c(c2)CCCO4)n2c-3cc3cc(-c4cnc([C@@H]5C[C@H]6C[C@H]6N5C(=O)[C@@H](NC(=O)OC)C(C)C)[nH]4)ccc32)[nH]1)C(C)C (single isomer, unassigned) [Compound 51] | 2130 pM |  |  | 4770 pM | 2.5 pM | 1.9 pM | 
COC(=O)N[C@H](C(=O)N1CCC[C@H]1c1ncc(-c2cc(F)c3c(c2)OC(c2ccc4c(c2)OCCC4(F)F)n2c-3cc3cc(-c4cnc([C@@H]5CCCN5C(=O)[C@@H](NC(=O)OC)C(C)C)[nH]4)ccc32)[nH]1)C(C)C (single isomer, unassigned) [Compound 20] | 67 pM |  | 1.3 pM | 40 pM | 1.4 pM |  | 
COC(=O)N[C@H](C(=O)N1CCC[C@H]1c1ncc(-c2cc(F)c3c(c2)OC(c2ccc4c(c2)OCCC4)n2c-3cc3cc(-c4cnc([C@@H]5CCCN5C(=O)[C@@H](NC(=O)OC)C5CCOCC5)[nH]4)ccc32)[nH]1)C(C)C (single isomer, unassigned) [Compound 31] | 322 pM |  |  | 98 pM | 2.2 pM | 1.5 pM | 
COC(=O)NC(C(=O)N1CCC[C@H]1c1ncc(-c2cc(F)c3c(c2)OC(c2ccc4c(c2)OCCC4)n2c-3cc3cc(-c4cnc([C@@H]5CCCN5C(=O)[C@@H](NC(=O)OC)C5CCOCC5)[nH]4)ccc32)[nH]1)C(C)(C)F (single isomer, unassigned) [Compound 88] | 9930 pM | 2.6 pM | 14.9 pM | 3110 pM |  |  | 
COC(=O)NC(C(=O)N1CCC[C@H]1c1ncc(-c2ccc3c(c2)cc2n3C(c3ccc4c(c3)OCCC4)Oc3cc(-c4cnc([C@@H]5CCCN5C(=O)[C@@H](NC(=O)OC)C(C)C)[nH]4)cc(F)c3-2)[nH]1)C1C[C@@H](C)O[C@@H](C)C1 (single isomer, unassigned) [Compound 76] | 12 pM |  | 2.5 pM | 4 pM | 3.2 pM |  | 
COC(=O)NC(C(=O)N1CCC[C@H]1c1ncc(-c2ccc3c(c2)cc2n3C(c3ccc4c(c3)OC(C)CC4)Oc3cc(-c4cnc([C@@H]5CCCN5C(=O)[C@@H](NC(=O)OC)C(C)C)[nH]4)cc(F)c3-2)[nH]1)C1C[C@@H](C)O[C@@H](C)C1 (single isomer, unassigned) [Compound 60] | 20 pM | 3.1 pM | 3 pM | 25 pM |  |  | 
COC(=O)NC(C(=O)N1CCC[C@H]1c1ncc(-c2ccc3c(c2)cc2n3C(c3ccc4c(c3)OCCC4)Oc3cc(-c4cnc([C@@H]5CCCN5C(=O)[C@@H](NC(=O)OC)C(C)C)[nH]4)cc(C)c3-2)[nH]1)C1C[C@@H](C)O[C@@H](C)C1 (single isomer, unassigned) [Compound 86] | 28 pM |  | 3 pM | 7 pM | 2.7 pM |  | 
COC(=O)NC(C(=O)N1CCC[C@H]1c1ncc(-c2ccc3c(c2)cc2n3C(c3ccc4c(c3)OCCC4)Oc3cc(-c4cnc([C@@H]5CCCN5C(=O)[C@@H](NC(=O)OC)C(C)C)[nH]4)cc(F)c3-2)[nH]1)C1CCOC(C)(C)C1 (single isomer, unassigned) [Compound 79] | 6 pM |  |  |  | 2.7 pM | 1.7 pM | 7 pM
COC(=O)NC(C(=O)N1[C@@H]2C[C@@H]2C[C@H]1c1ncc(-c2ccc3c(c2)cc2n3C(c3ccc4c(c3)CCCO4)Oc3cc(-c4cnc([C@@H]5CCCN5C(=O)[C@@H](NC(=O)OC)C(C)C)[nH]4)cc(F)c3-2)[nH]1)C1C[C@@H](C)O[C@@H](C)C1 (single isomer, unassigned) [Compound 65] | 43 pM |  |  | 935 pM | 1.8 pM | 2.9 pM | 
COC(=O)N[C@H](C(=O)N1CCC[C@H]1c1ncc(-c2cc(F)c3c(c2)OC(c2ccc4c(c2)OC(C)CC4)n2c-3cc3cc(-c4cnc([C@@H]5CCCN5C(=O)[C@@H](NC(=O)OC)C(C)C)[nH]4)ccc32)[nH]1)C(C)C (single isomer, unassigned) [Compound 14] | 119 pM | 2.6 pM | 1.8 pM | 163 pM |  |  | 
COC(=O)NC(C(=O)N1CCC[C@H]1c1ncc(-c2ccc3c(c2)cc2n3C(c3ccc4c(c3)CCCO4)Oc3cc(-c4cnc([C@@H]5CCCN5C(=O)[C@@H](NC(=O)OC)C(C)C)[nH]4)cc(F)c3-2)[nH]1)C1C[C@@H](C)O[C@@H](C)C1 (single isomer, unassigned) [Compound 74] | 91 pM |  | 2.5 pM | 234 pM |  |  | 
COC(=O)N[C@H](C(=O)N1CCC[C@H]1c1ncc(-c2cc(F)c3c(c2)OC(c2ccc4c(c2)OC(C)CC4)n2c-3cc3cc(-c4cnc([C@@H]5CCCN5C(=O)[C@@H](NC(=O)OC)C(C)C)[nH]4)ccc32)[nH]1)C(C)C (single isomer, unassigned) [Compound 11] | 5700 pM |  |  | 1390 pM |  | 2.5 pM | 
